Measured values from patent US20050096311A1, “Compositions and methods for treatment of nervous system disorders” (CNS Response, priority 2003, published 2005).

Experiments:
migraine attacks = settings: given prophylactically; cited from earlier work
norepinephrine uptake = norepinephrine uptake (Homo sapiens, UniProt P23975); settings: cited from earlier work
dopamine uptake = dopamine uptake (Homo sapiens, UniProt Q01959); settings: cited from earlier work
[1] = cited from earlier work
[2] = tested on: nervous system disorder symptoms in affected patients; assay: Randomized double-blind study in naive patients presenting at least one symptom of a nervous system disorder (Example 1); type: in vivo
Description: The design of this study is a randomized double-blind protocol in which a first set of clinicians diagnosed a group of naive (i.e., previously untreated) patients presenting at least one symptom of a nervous system disorder.
A second set of clinicians will monitor the compliance of each patient and assess the presence or absence of at least one symptom of a nervous system disorder on a weekly basis throughout the treatment period. At the termination of the study a third set of clinicians will evaluate the data and document the results.
Relative to Group I, all treatment groups are expected to reduce at least one symptom of a nervous system disorder except Group IV.

[3] = cited from earlier work; remark: listed apart in the source
[4] = formulated as a hydrochloride salt; cited from earlier work
[5] = biphasic elimination; cited from earlier work
pain of migraine = settings: oral or intrapulmonary administration; cited from earlier work
[6] = tested on: Parkinson's disease symptoms; settings: cited from earlier work

Chain of norepinephrine uptake (P23975 whole entry): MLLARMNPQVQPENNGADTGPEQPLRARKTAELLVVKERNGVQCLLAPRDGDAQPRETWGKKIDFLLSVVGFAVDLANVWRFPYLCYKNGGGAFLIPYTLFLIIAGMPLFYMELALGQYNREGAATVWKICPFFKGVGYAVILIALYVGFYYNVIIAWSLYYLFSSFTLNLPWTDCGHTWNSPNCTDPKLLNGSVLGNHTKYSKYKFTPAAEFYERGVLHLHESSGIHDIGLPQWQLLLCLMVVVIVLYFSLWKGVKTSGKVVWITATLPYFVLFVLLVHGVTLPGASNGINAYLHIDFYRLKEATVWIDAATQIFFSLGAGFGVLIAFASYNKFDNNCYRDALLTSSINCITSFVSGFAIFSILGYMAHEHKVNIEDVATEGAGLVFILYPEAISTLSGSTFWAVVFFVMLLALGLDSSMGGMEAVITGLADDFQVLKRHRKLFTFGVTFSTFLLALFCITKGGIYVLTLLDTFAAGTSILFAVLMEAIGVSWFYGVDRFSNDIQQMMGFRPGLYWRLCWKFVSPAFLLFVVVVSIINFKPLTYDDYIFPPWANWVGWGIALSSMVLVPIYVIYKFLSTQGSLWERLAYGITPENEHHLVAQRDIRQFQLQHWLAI
Chain of dopamine uptake (Q01959 whole entry): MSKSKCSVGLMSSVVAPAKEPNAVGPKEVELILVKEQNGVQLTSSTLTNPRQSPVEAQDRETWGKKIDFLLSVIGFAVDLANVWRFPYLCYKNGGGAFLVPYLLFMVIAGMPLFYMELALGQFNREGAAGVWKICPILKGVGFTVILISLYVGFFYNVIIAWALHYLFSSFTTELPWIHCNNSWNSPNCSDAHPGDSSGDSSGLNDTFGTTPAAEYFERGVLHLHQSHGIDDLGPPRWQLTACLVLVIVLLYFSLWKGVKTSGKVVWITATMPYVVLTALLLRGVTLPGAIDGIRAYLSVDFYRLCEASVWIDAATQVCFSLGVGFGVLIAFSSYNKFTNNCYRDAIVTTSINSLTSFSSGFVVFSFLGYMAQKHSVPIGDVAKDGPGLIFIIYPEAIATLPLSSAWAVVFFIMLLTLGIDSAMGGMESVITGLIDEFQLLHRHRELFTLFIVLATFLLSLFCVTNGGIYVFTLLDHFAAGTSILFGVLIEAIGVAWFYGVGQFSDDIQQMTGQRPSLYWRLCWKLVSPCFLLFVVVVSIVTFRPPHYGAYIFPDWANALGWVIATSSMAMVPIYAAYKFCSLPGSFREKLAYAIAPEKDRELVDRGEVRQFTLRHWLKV

## CC(C)NCC(O)COc1cccc2ccccc12 (stereo not shown) [propranolol]
Migraine attacks
  patients with reduced frequency and intensity of migraine attacks: 70%

## C[C@H]1NC(C)(C)CO[C@]1(O)c1cccc(Cl)c1 [hydroxybupropion]
Norepinephrine uptake
  inhibition of norepinephrine uptake: effective inhibitor
Dopamine uptake
  inhibition of dopamine uptake: effective inhibitor

## C[C@@H]1NC(C)(C)CO[C@@]1(O)c1cccc(Cl)c1 [(S,S)-hydroxybupropion]
Norepinephrine uptake
  inhibition of norepinephrine uptake: effective inhibitor of only norepinephrine uptake

## NC(=O)N1c2ccccc2CC(=O)c2ccccc21 [oxcarbazepine]
[1]; 600 mg oxcarbazepine dose
  plasma half-life: approximately 19.3±6.2 hours
[2]; Symptom EIGHT
  Percent Reduction In Nervous System Disorder Symptoms In Affected Patients: 10 ± 1%
[2]; Symptom FIVE
  Percent Reduction In Nervous System Disorder Symptoms In Affected Patients: 10 ± 1%
[2]; Symptom FOUR
  Percent Reduction In Nervous System Disorder Symptoms In Affected Patients: 10 ± 1%
[2]; Symptom ONE
  Percent Reduction In Nervous System Disorder Symptoms In Affected Patients: 10 ± 1%
[2]; Symptom SEVEN
  Percent Reduction In Nervous System Disorder Symptoms In Affected Patients: 10 ± 1%
[2]; Symptom SIX
  Percent Reduction In Nervous System Disorder Symptoms In Affected Patients: 10 ± 1%
[2]; Symptom THREE
  Percent Reduction In Nervous System Disorder Symptoms In Affected Patients: 10 ± 1%
[2]; Symptom TWO
  Percent Reduction In Nervous System Disorder Symptoms In Affected Patients: 10 ± 1%

## NC(=O)N1c2ccccc2CC(O)c2ccccc21 (stereo not shown) [MHD, 10, 11-dihydro-10-OH-carbazepine]
[3]; distribution between blood cell compartments
  plasma protein binding: low level of plasma protein binding
[3]; epileptic patients
  mean non-protein bound MHD fraction: approximately 56.7 +/−5.5%
[1]; co-administration of oxcarbazepine and vilooxazoine
  increase in the non-protein bound plasma MHD concentration: 11%

## CC(NC(C)(C)C)C(=O)c1cccc(Cl)c1 (stereo not drawn) [bupropion, m-chloro-α-(t-butylamino)propiophenone]
[4]
  solubility: water-soluble
[2]; Symptom EIGHT
  Percent Reduction In Nervous System Disorder Symptoms In Affected Patients: 25 ± 2.5%
[2]; Symptom FIVE
  Percent Reduction In Nervous System Disorder Symptoms In Affected Patients: 25 ± 2.5%
[2]; Symptom FOUR
  Percent Reduction In Nervous System Disorder Symptoms In Affected Patients: 25 ± 2.5%
[2]; Symptom ONE
  Percent Reduction In Nervous System Disorder Symptoms In Affected Patients: 25 ± 2.5%
[2]; Symptom SEVEN
  Percent Reduction In Nervous System Disorder Symptoms In Affected Patients: 25 ± 2.5%
[2]; Symptom SIX
  Percent Reduction In Nervous System Disorder Symptoms In Affected Patients: 25 ± 2.5%
[2]; Symptom THREE
  Percent Reduction In Nervous System Disorder Symptoms In Affected Patients: 25 ± 2.5%
[2]; Symptom TWO
  Percent Reduction In Nervous System Disorder Symptoms In Affected Patients: 25 ± 2.5%
[5]
  elimination half-life: 11 to 14 h
  redistribution half-life: about one

## CN1C[C@H](C(=O)N[C@]2(C)O[C@@]3(O)[C@@H]4CCCN4C(=O)[C@H](Cc4ccccc4)N3C2=O)C=C2c3cccc4[nH]cc(c34)C[C@H]21 [Ergotamine]
Pain of migraine
  time to pain relief: 5 h

## C[C@@](Cc1ccc(O)c(O)c1)(NN)C(=O)O [carbidopa]
[6]; concurrent administration of carbidopa
  reduction of the dose of levodopa: ≤ 75%

## N[C@@H](Cc1ccc(O)c(O)c1)C(=O)O [Levodopa, L-3,4-dihydroxyphenylalanine]
[6]; Parkinson's disease patients
  reduction in symptomology: 50%
  treated patients showing the reduction in symptomology: 75%
